Assay [1] concerns Streptococcus. Description: Group A Streptococcus viability loss, dose response, counter-screen for streptokinase expression inhibitor project, luminescence, BacTiterGlo (AID 1915).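 Further: potency for reduction of bacterial viability or growth.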 It counts as functional, organism-based.
Assay [2] relates to Streptococcus sp. 'group A'. Put plainly: growth inhibition of control SK(-) GAS strain, dose response, counter-screen for streptokinase expression inhibitor project, luminescence, kanamycin, BacTiterGlo, confirmation (AID 1900). Type of assay: functional, organism-based.
Assay [3] concerns the target T1, Streptokinase A (Streptococcus pyogenes serotype M1, UniProt P10520).
T1 sequence (P10520 whole entry): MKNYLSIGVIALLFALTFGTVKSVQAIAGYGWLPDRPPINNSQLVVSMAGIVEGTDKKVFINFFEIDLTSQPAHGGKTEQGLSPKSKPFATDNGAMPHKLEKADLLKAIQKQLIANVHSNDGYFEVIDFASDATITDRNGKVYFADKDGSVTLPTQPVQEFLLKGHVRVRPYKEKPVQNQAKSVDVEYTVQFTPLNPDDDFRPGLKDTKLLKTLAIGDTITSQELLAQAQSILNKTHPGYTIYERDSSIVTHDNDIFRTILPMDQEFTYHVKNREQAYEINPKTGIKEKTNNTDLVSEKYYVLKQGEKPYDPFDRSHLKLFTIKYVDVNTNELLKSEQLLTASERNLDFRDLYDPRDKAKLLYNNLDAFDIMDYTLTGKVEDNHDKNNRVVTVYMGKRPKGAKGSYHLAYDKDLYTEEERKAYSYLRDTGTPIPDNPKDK
Description: S. pyogenes streptokinase expression inhibitors, potency, dose response, plasminogen activation absorbance, OD405 (AID 1914).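 Further: secreted streptokinase activity via plasminogen activation per viability signal from cell pellet.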 It counts as functional, Streptococcus pyogenes M1 GAS.

Assay [4] can be described thus: cytotoxicity toward NIH3T3 fibroblasts, dose response, counter-screen, cell-based, ATP luminescence, mouse fibroblasts (AID 2010).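 Further: cells exposed to compound for about 90 hours before reading.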 It counts as functional.
Assay [5] is described as follows: inhibitors of intracellular T. cruzi replication, confirmation, NIH3T3 host cells, beta-gal luminescence (AID 2044).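 Further: intracellular parasites grown in NIH/3T3 mouse fibroblasts as host cells; luminescent beta-galactosidase reporter signal from transgenic T. cruzi replicating inside host cells; inhibitors lower the luminescence signal.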 It counts as functional, cell-based.
The target of assay [6] is T2, Rac GTPase-activating protein 1 (Homo sapiens, UniProt Q9H0H5).
T2 sequence (Q9H0H5 whole entry): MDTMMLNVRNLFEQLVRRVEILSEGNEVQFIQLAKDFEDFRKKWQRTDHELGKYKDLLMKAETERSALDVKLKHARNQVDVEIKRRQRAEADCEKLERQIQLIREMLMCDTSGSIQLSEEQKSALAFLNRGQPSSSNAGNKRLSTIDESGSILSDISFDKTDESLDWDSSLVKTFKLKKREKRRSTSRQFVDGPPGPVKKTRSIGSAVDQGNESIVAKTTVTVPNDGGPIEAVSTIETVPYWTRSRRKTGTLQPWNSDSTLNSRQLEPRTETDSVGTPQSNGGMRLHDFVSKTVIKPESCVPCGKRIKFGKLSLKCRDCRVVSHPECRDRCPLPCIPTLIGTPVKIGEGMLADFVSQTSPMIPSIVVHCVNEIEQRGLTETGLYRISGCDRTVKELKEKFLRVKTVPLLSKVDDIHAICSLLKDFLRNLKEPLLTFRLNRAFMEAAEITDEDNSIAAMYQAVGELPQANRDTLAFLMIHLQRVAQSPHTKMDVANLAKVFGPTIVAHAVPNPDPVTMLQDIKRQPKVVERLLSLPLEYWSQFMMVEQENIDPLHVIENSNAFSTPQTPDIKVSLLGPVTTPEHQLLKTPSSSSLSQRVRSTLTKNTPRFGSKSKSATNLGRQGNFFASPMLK
Description: MgcRacGAP GTPase-activating activity inhibitors, confirmation, biochemical, ADP Hunter fluorescence, primary and confirmatory (AID 624330). Type of assay: functional.

Assay [7] addresses T3, Cytochrome P450 1A2 (Homo sapiens, UniProt P05177).
T3 sequence (P05177 whole entry): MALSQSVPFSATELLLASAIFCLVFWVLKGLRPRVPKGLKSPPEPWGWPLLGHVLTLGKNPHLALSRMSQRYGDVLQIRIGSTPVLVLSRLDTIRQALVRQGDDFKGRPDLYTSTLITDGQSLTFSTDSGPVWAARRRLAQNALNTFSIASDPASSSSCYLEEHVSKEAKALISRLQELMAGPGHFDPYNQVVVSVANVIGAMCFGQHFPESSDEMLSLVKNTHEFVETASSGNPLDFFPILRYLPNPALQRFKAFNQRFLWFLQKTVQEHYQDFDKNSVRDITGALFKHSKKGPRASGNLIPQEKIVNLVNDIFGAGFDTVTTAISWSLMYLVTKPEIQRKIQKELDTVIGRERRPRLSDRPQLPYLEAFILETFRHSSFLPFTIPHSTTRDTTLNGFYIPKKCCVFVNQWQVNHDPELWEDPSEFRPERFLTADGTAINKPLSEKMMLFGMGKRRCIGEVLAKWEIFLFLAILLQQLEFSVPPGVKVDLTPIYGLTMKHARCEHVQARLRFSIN

Several values for one entry are separate records, joined by “and”; a condition that tells them apart may be missing. Equal values may be shown once. Activity calls are given as the source filed them. For most assays here, no stated cut-off is given here; in the data, actives have a measured EC50 and inactives only a lower limit.
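Wherever AC50 is given: PubChem cytochrome P450 panel assay, CYP1A2 panel member.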

Take `O=C(Nc1ccccc1N1CCCC1)c1ccc2c(c1)OCO2`: the EC50 in assay [1], in assay [2] and in assay [3] was > 150 µM (not active) in each case.

On to `Cc1onc(-c2ccccc2Cl)c1C(=O)O/N=C(\N)c1ccccc1`, for which the EC50 (commonly the concentration at which the effect is half-maximal) was > 60 µM (not active) in assay [4] and 2.34 µM (active) in assay [5].

On to `COc1ccc(C(=O)NCC(=O)OCC(=O)N2N=C(c3ccc(Cl)cc3)CC2c2ccco2)cc1OC` (stereo unspecified), for which the EC50 is > 150 µM (not active) in assay [1], 47 µM (active) in assay [2] and > 150 µM (not active) in assay [3].

For `Cc1ccc(NC(=O)COc2ccc(CCO)cc2-n2nc3ccccc3n2)cc1C`, the values for the EC50 in assay [4] and in assay [5] were > 60 µM (inconclusive) and 1.61 µM (active), respectively.

Turning to `CCN1CCN(c2ccc(S(=O)(=O)N3CCOCC3)cc2NC(=O)COc2ccc(F)cc2Cl)CC1`, the results for the EC50 in assay [4] and in assay [5] were 19.2 µM (active) and 1.06 µM (active), respectively.

Take `COc1cccc(C(=O)C2CCCN(Cc3ccc(OC)c(Cn4cncn4)c3)C2)c1` (stereo unspecified): the EC50 in assay [4] is > 60 µM (not active); in assay [5], 0.398 µM (active).

Take `CC(C)(C)OC(=O)NCCCC[C@H](NC(=O)c1[nH]cnc1C(=O)Nc1ccc(Cl)cc1)C(=O)OC(C)(C)C`: the values for the EC50 in assay [1], in assay [2] and in assay [3] were 8.04 µM (active), 3.64 µM (active) and > 150 µM (not active), respectively.

On to `O=C(Nc1ccc(-c2csc(Nc3ccc(Cl)cc3)n2)cc1)c1cccc(C(F)(F)F)c1`, for which the EC50 in assay [4] was 7.75 µM (active); in assay [5], 1.76 µM (active).

Turning to `CN1CCC(N(C)CC(=O)Nc2ccc3c(c2)OC(F)(F)O3)CC1`, the IC50 – broadly, the concentration at which inhibition is half-maximal – in assay [6] is 65.9 µM (active).

Regarding `CC(=O)CCCCn1c(=O)c2c(ncn2C)n(C)c1=O` [PENTOXIFYLLINE], the AC50 (usually the midpoint of the concentration-response curve, whichever way the signal moves) in assay [7] was 12.6 µM (inconclusive).

For `CCc1ccc2c(c1)C(c1ccc(N3CCOCC3)cc1)=NNC(c1ccncc1)=N2`, the figures for the EC50 in assay [4] and in assay [5] were > 30 µM (not active) and 1.5 µM (active), respectively.

Take `Cc1ccc(NP(=O)(c2ccc(N(C)C)cc2NC(=O)c2cccs2)N2CCOCC2)cc1` (stereo unspecified): the EC50 is > 60 µM (not active) in assay [4] and 1.49 µM (active) in assay [5].

Consider `Cc1oc(-c2cc(Cl)cc(Cl)c2)cc1C(=O)NCCc1ccccc1`, for which the EC50 in assay [1] is 48.3 µM (active); in assay [2] it was 17.3 µM (active); in assay [3], 2.57 µM (active).

For `COc1c(Cl)cc(Cl)cc1C(=O)Nc1ccc(NC(=O)c2cccs2)cc1`, the EC50 is > 60 µM (not active) in assay [4] and 1.95 µM (active) in assay [5].

Turning to `COc1ccc(NC(=O)CN(C)C(=O)/C=C/c2cn(-c3ccccc3)nc2-c2ccc(F)cc2)cc1`, the EC50 is 68.1 µM (active) in assay [1], 26.5 µM (active) in assay [2] and 53.8 µM (inconclusive) in assay [3].

As for `COc1ccccc1-c1nnc(NC(=O)CCS(=O)(=O)c2ccccc2)o1`, the EC50 in assay [1], in assay [2] and in assay [3] was > 150 µM (not active) each time.

Turning to `CC(CCN1CCN(CCO)CC1)c1ccccc1` (stereo unspecified), the IC50 in assay [6] was 153 µM (active).

`CCC/C=C(\CCC)C(NS(=O)(=O)c1ccc(Cl)cc1)c1ccccc1` (stereo unspecified): the AC50 in assay [7] is 12.6 µM (inconclusive).

Turning to `O=C(CCC1CCCN(Cc2ccncc2)C1)NCc1ccc(F)c(F)c1` (stereo unspecified), the EC50 is > 60 µM (not active) in assay [4] and 0.661 µM (active) in assay [5].

Take `COc1ccc(CN2CCN(Cc3ccc4ccccc4c3)CC2)cc1OC`: in assay [6], the IC50 was 76.4 µM (active).

As to `CCCCc1sc(-c2c(C#N)c(N)nc3c2CCCCC3)cc1[N+](=O)[O-]`, the EC50 in assay [4] is > 60 µM (not active); in assay [5] it was 1.98 µM (active).

For `CCN1C(=O)c2ccc(C(=O)Nc3ccc(O)cc3C)cc2C1=O`, the half-maximal inhibitory concentration (IC50) in assay [6] is 108 µM (active).

With `COc1cc(/C=N/NC(=O)c2nnn(-c3nonc3N)c2C(C)C)ccc1O`, in assay [6], the IC50 is 31 µM (active).

With `CCOC(=O)C1(CCOc2ccccc2)CCN(Cc2cccc3nonc23)CC1`, the results for the EC50 in assay [4] and in assay [5] were > 60 µM (not active) and 1.49 µM (active), respectively.

On to `NS(=O)(=O)c1ccc(CCNCC(=O)N2CCC(Cc3ccccc3)CC2)cc1`, for which, in assay [6], the IC50 is 283 µM (active).

For the molecule `O=C1CCc2cc(OCCCCc3nnnn3C3CCCCC3)ccc2N1` [CILOSTAZOL], the AC50 in assay [7] is 39.8 µM (inconclusive).

With `COc1ccc(NC(=O)c2ccc(NC(=O)CN3CCN(c4ccc(O)cc4)CC3)cc2)cc1`, the IC50 in assay [6] was 63 µM (active).

`Nc1ccc(OCc2ccco2)cc1`: the IC50 in assay [6] is 49.8 µM (active).

As for `N#CCCN1CCN(CCC#N)c2ccccc21`, the IC50 in assay [6] was 16.1 µM (active).

`COc1ccc(CCC(=O)N2CCN(C3CCCCC3)CC2)cc1`: the EC50 was > 60 µM (not active) in assay [4] and 1.53 µM (active) in assay [5].

As to `COc1c(-c2ccc(O)c(O)c2)oc2cc(O)cc(O)c2c1=O` [3-O-METHYLQUERCETIN], in assay [6], the IC50 was 30.3 µM (active).

Turning to `CCCN(CCC)[C@H]1CCc2c(F)ccc(O)c2C1`, in assay [7], the half-maximal activity concentration (AC50) was 12.6 µM (inconclusive) and 25.1 µM (inconclusive).

For `CCOC(=O)c1[nH]c2ccccc2c1N=C(S)Nc1ccccc1C`, the IC50 in assay [6] is 65.9 µM (active).

`O=C(NC1CCCC1)C(c1ccccc1)N(Cc1cccnc1)C(=O)Cc1cccs1` (stereo unspecified): the EC50 in assay [4] is > 60 µM (not active); in assay [5], 1.45 µM (active).

Turning to `Fc1ccc(N2CCN(Cc3c[nH]c4ccccc34)CC2)cc1`, the EC50 in assay [4] is > 60 µM (not active); in assay [5], 0.69 µM (active).

For the molecule `CC(C)/C=C1\CC/C(=C\c2cccnc2)C1=O`, the EC50 in assay [4] is > 60 µM (not active); in assay [5], 1.14 µM (active).

In the case of `C[C@H]1C=C2C=C[C@H](C)[C@H](CC[C@@H]3C[C@@H](O)CC(=O)O3)[C@H]2[C@@H](OC(=O)[C@@H](C)CCO)C1`, the AC50 in assay [7] is 31.6 µM (inconclusive).

As for `Cc1ccc(S(=O)(=O)N2CCC(C(=O)Nc3ccc(S(=O)(=O)N4CCCC4)cc3)CC2)cc1C`, the EC50 in assay [4] is > 30 µM (not active); in assay [5], 0.795 µM (active).

On to `CC(C)c1ccc(/C=N/N2CCCCC2)cc1`, for which, in assay [6], the IC50 is 220 µM (active).

Turning to `COc1cccc(/C=N/NC(=O)c2cccc([N+](=O)[O-])c2)c1OS(=O)(=O)c1ccc(C)cc1`, in assay [7], the concentration at half-maximal activity (AC50) was 6.31 µM (inconclusive).

In the case of `Brc1ccc(OCc2ccccc2)c(CNCc2ccncc2)c1`, the figures for the EC50 in assay [4] and in assay [5] were > 60 µM (not active) and 0.802 µM (active), respectively.

In the case of `CC(=O)Nc1ccc(OC(=O)c2cc3ccccc3oc2=O)cc1`, the IC50 in assay [6] is 23.2 µM (active).

For the molecule `O=C(NCCCN1CCN(CCCNC(=O)c2cccc([N+](=O)[O-])c2)CC1)c1cccc([N+](=O)[O-])c1`, the EC50 in assay [4] is > 30 µM (not active); in assay [5], 1.11 µM (active).

On to `O=C(CSc1nc2nncc-2c(O)n1-c1ccc(Cl)c(Cl)c1)NCc1ccccc1Cl`, for which the EC50 is > 60 µM (inconclusive) in assay [4] and 2.43 µM (active) in assay [5].

For the molecule `C[C@@H]1C[C@H](OC(=O)c2ccccc2O)CC(C)(C)C1`, the AC50 in assay [7] was 12.6 µM (inconclusive).

The record behind these values is ChEMBL document CHEMBL1201862, “PubChem BioAssay data set” (2004).
